{"source": "paper PMC9977398", "about": "“Next-generation membrane-active glycopeptide antibiotics that also inhibit bacterial cell division” (Chemical Science, 2023)", "key": {"VRE ATCC 51575": {"system": "VRE ATCC 51575", "experiment": "Activity in blood plasma and liver homogenate", "assay_type": "cell-based, E. faecalis", "conditions": "for MIC: Enterococcus, VRE ATCC 51575", "method": "(§1) Table S1: Activity of VanQAmC10 in mouse plasma and liver homogenate against MRSA […]\n(§2) MIC of VanQAmC10 post incubation in (μM) […]\n(§3) Activity in blood plasma and liver homogenate\n(§4) To examine the susceptibility of VanQAmC10 to serum proteases, the antibacterial activities was tested in the presence of 50% of plasma and liver homogenate. Briefly, 250 μL of VanQAmC10 was added into 250 μL of fresh […] plasma and incubated at 37 °C. An aliquot of the samples 3 h and 24h post-incubation was diluted in 0.9% saline and the antibacterial activity (MIC) were determined against MRSA and VRE by following the same protocol as described above for the antibacterial assay. […]\n(§5) 50 μL of ∼10^6 CFU/mL bacterial inoculum (MRSA ATCC33591) was injected into the thigh. 1 h post-inoculation, animals were treated intraperitoneally twice with 12 h intervals with saline, vancomycin (12 mg kg−1), and VanQAmC10 (12 mg kg−1). 24 h post the first treatment, the animals were euthanized (using ether) and the thighs were collected aseptically. The thigh tissue was weighed and homogenized. The dilutions of the homogenate were plated onto agar plates, which were incubated overnight at about 37 °C. […]\n(§6) In-vivo activity in murine burn wound infectionmodel 10-12"}, "MRSA ATCC 33591": {"system": "MRSA ATCC 33591", "experiment": "Activity in blood plasma and liver homogenate", "assay_type": "cell-based, S. aureus", "conditions": "for MIC: Staphylococcus aureus", "method": "as §1, §2, §3, §4, §5, §6"}, "[1]": {"experiment": "In-vivo toxicity in mice (LD50)", "parameters": "species or system Balb/c female mice", "conditions": "for LD50: single injection, 14 days", "method": "The in vitro activity, low toxicity, and stability in plasma and liver homogenate, supported the potential of VanQAmC10 as a candidate for the treatment of bacterial infections. The efficacy of VanQAmC10 (8) against MRSA was tested in a neutropenic mouse thigh infection model. Infection was established by injecting them with 5 × 10^5 CFU of MRSA in the thigh. 1 h and 13 h post-infection, mice were treated with 12 mg kg^−1 of vancomycin and VanQAmC10 administered intraperitoneally (Fig. 6B). The mice were sacrificed 24 h post-infection. […] In the untreated group, the bacterial load increased to 8 log CFU g^−1. […] However, treatment with VanQAmC10 reduced the bacterial load to 3.3 log CFU g^−1, which is a 1.5 log CFU g^−1 lower bacterial load than observed against vancomycin.\nas §1\nMIC of VanQAmC10 post incubation in (μM)\nBacteria Plasma Liver homogenate Media […]\nwhen administered subcutaneously. […]\nof VanQAmC10 as compared to the previously developed molecule, VanQC14.3 This reduced toxicity of VanQAmC10 can be attributed to the presence of the amide spacer between the cationic moiety and the alkyl chain as mentioned in the previous section.\nTable S2 In-vivo toxicity (LD50 values) of VanQAmC10 by various modes of administration Mode of administration LD 50 (mg/kg)\nAll reagents were purchased from Sigma-Aldrich and Spectrochem and used without further purification. All the solvents of reagent grade were purchased from Spectrochem and SD Fine.\nChloroform for column chromatography was purchased from SD Fine chemicals and distilled prior to use. HPLC grade acetonitrile was purchased from Spectrochem. Analytical thin layer chromatography (TLC) was performed on E. Merck TLC plates pre-coated with silica gel 60 F254 (250 μm thickness). Vancomycin derivative was purified by reverse phase HPLC using 0.1 % trifluoroacetic acid (TFA) in water/acetonitrile (0-100 %) as mobile phase. HPLC […]\nThe doses for administration, were given modified OECD guidelines. LD50 was determined using Spearman-Karber method. […]"}}, "note": "Read-outs that look alike come from different tables or passages of the source."}
{"smiles": "CCCCCCCCCCNC(=O)C[N+](C)(C)CCCNC(=O)C1NC(=O)C2NC(=O)C(NC(=O)C3NC(=O)C(CC(N)=O)NC(=O)C(NC(=O)C(CC(C)C)NC)C(O)c4ccc(c(Cl)c4)Oc4cc3cc(c4OC3OC(CO)C(O)C(O)C3OC3CC(C)(N)C(O)C(C)O3)Oc3ccc(cc3Cl)C2O)c2ccc(O)c(c2)-c2c(O)cc(O)cc21", "note": "(centres unmarked) [VanQAmC10 (8)]", "values": [{"measurement": "MIC", "setting": "VRE ATCC 51575; 50% plasma, 37 °C, read-out: MIC post incubation in plasma", "result": 4, "unit": "µM"}, {"measurement": "MIC", "setting": "VRE ATCC 51575; read-out: MIC post incubation in liver homogenate", "result": 4, "unit": "µM"}, {"measurement": "MIC", "setting": "VRE ATCC 51575; read-out: MIC post incubation in media", "result": 4, "unit": "µM"}, {"measurement": "change of MIC in plasma and liver homogenate", "setting": "VRE ATCC 51575; VRE", "result": "remained unchanged"}, {"measurement": "change of MIC in plasma and liver homogenate", "setting": "MRSA ATCC 33591; MRSA", "result": "remained unchanged"}, {"measurement": "MIC", "setting": "MRSA ATCC 33591; read-out: MIC post incubation in plasma", "result": 0.4, "unit": "µM"}, {"measurement": "MIC", "setting": "MRSA ATCC 33591; MRSA ATCC 33591, read-out: MIC post incubation in liver homogenate", "result": 0.4, "unit": "µM"}, {"measurement": "MIC", "setting": "MRSA ATCC 33591; MRSA ATCC 33591, read-out: MIC post incubation in media", "result": 0.4, "unit": "µM"}, {"measurement": "dose well tolerated, all mice survived", "setting": "[1]; intraperitoneal", "result": 130, "unit": "mg/kg"}, {"measurement": "LD50", "setting": "[1]; intraperitoneal", "result": "greater than 130 mg/kg"}, {"measurement": "LD50", "setting": "[1]; subcutaneous", "result": "greater than 160 mg kg^−1"}]}
